Measured values as given in ChEMBL document CHEMBL1201862, “PubChem BioAssay data set” (2004).
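Values below derive from 48-hour exposures of cells grown in 96-well plates, with endpoints linearly interpolated between the two concentrations bracketing the appropriate inhibition level. GI50 = concentration required for 50% inhibition of growth.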 Active and inactive are the calls of the source. Rule as the data show it: active = GI50 up to about 1.1 µM and inactive = higher.

Key:
Assay in all cases: NCI tumour cell line growth inhibition, 48 h
HOP-92 = test system: HOP-92
MDA-N = test system: MDA-N
SN12C = test system: SN12C
OVCAR-8 = test system: OVCAR-8
IGROV-1 = test system: IGROV-1
ACHN = test system: ACHN
M14 = test system: M14
SK-MEL-28 = test system: SK-MEL-28
UACC-257 = test system: UACC-257
A549 = test system: A549
LOX IMVI = test system: LOX IMVI
MCF7 = test system: MCF7
NCI-H460 = test system: NCI-H460
NCI-H522 = test system: NCI-H522
CAKI-1 = test system: CAKI-1
T47D = test system: T47D
BT-549 = test system: BT-549
A498 = test system: A498
UACC-62 = test system: UACC-62
EKVX = test system: EKVX

Measured: GI50

Nc1nc(-c2ccc3ccccc3c2)cc(-c2cc(-c3ccc4ccccc4c3)nc(N)n2)n1
inactive: HOP-92 > 100 µM | MDA-N > 100 µM | SN12C > 100 µM | OVCAR-8 > 100 µM | IGROV-1 > 100 µM | ACHN > 100 µM | M14 > 100 µM | SK-MEL-28 > 100 µM | UACC-257 > 100 µM | A549 > 100 µM | LOX IMVI > 100 µM | MCF7 > 100 µM | NCI-H460 > 100 µM | NCI-H522 > 100 µM | CAKI-1 > 100 µM | T47D > 100 µM | BT-549 > 100 µM | A498 > 100 µM | UACC-62 > 100 µM | EKVX 75.3 µM
